Reference: article PMC5836806 (Bioorganic & medicinal chemistry letters, 2018)

What was measured:
human mPGES-1 = molecular target: T1, human mPGES-1 (Homo sapiens, UniProt O14684); assay: in vitro inhibition of human mPGES-1; assay type: biochemical; conditions: Table 2
T1 sequence (O14684 1-152): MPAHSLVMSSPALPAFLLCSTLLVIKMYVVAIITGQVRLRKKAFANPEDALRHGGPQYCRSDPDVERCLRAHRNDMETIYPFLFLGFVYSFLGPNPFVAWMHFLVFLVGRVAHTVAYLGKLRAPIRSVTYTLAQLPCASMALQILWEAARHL

[1] = tested on: COX-1/2 (mixed COX-1 and COX-2); assay: inhibition of mixed COX-1 and COX-2; assay type: biochemical; conditions: summary

activity against human mPGES-1 in words (human mPGES-1) | SMILES | inhibition against COX-1/2 in words [1]
submicromolar potency | CCOc1ccc(-c2nn(-c3ccc(Cl)cc3)cc2/C=C(\C#N)C(=O)O)cc1 [13a] | –
not very active | CCOc1ccc(-c2nn(-c3ccc(Cl)cc3)cc2C=C(C#N)C#N)cc1 [13b] | –
not very active | CCOc1ccc(-c2nn(-c3ccc(Cl)cc3)cc2/C=C(\C#N)C(N)=O)cc1 [13c] | –
submicromolar potency | CCCCCCOc1ccc(-c2nn(-c3ccc(Cl)cc3)cc2/C=C(\C#N)C(=O)O)cc1 [14a] | –
not very active | CCCCCCOc1ccc(-c2nn(-c3ccc(Cl)cc3)cc2C=C(C#N)C#N)cc1 [14b] | –
not very active | CCCCCCOc1ccc(-c2nn(-c3ccc(Cl)cc3)cc2/C=C(\C#N)C(N)=O)cc1 [14c] | –
– | CCCCCCOc1ccc(-c2nn(-c3ccc(Cl)cc3)cc2/C=C2/SC(=O)N(CC(=O)O)C2=O)cc1 [14f] | without significant inhibition
